Experimental findings from patent US7858658B2, “Fluoro- and trifluoroalkyl-containing heterocyclic sulfonamide inhibitors of beta amyloid production and derivatives thereof” (Wyeth LLC, priority 2003, dated 2010) are described below.

Several values for one entry are separate records, joined by “and”; a condition that tells them apart may be missing. Equal entries are not always repeated.

Series [1] is described as follows: Phase 1 and 2 rat liver microsome metabolism. It is filed as in vitro ADME. To be noted: liver microsomes, read-out: half-life (metabolic stability). A general note: Liver microsomes are a subcellular fraction often used to study metabolism.
Series [2] in a line: Phase 1 and 2 mouse liver microsome metabolism. It is filed as in vitro ADME. To be noted: liver microsomes, read-out: half-life (metabolic stability).
In series [3] the test system is amyloid precursor protein (APP) proteolysis. Description: Repressor Release Assay (RRA). Format: cell-based. Particulars: all compounds tested at 20 μg/mL; for fold induction at 20 µg/mL: read-out: RRA data: fold increase of APPI (luciferase activity over diluent control). As to the method: The beta amyloid inhibitory activity of many of the compounds of the present invention has been determined using the Repressor Release Assay (RRA). See, Table 5 below. A compound is considered active in RRA if it leads to at least a 1.5 fold increase in luciferase activity at 20 μg/mL and is non-toxic.
The compounds generated as described in the Examples above are tested in the RRA in accordance with published techniques [Shuey, D. J., Sheiffele, P., Jones, D., Cockett, M. I., and Quinet, E. M. (1999), “Repressor release: a useful tool for monitoring amyloid precursor protein (APP) proteolysis in mammalian cells”, Society for Neuroscience Abstracts, Vol. 25, 29th Annual Meeting of Society for Neuroscience, Miami Beach, Fla., Oct. 23-28, 1999]. Briefly, this assay is performed as follows.
CHO-K1 cells are cultured in whole DMEM media (DMEM—High Glucose with 10% fetal bovine serum, 1% Non-essential Amino Acids, and 1% Penicillin-Streptomycin) at 37° C. with 5% CO2. Two million cells are plated into 10-cm dishes 24 hrs prior to transfection.
Transient transfections are completed as recommended by Gibco BRL using their Lipofectamine Plus® system. First, 6 μg of pRSVO-luc and 6 μg of APP-lacI construct DNA are added to 460 μL Opti-Mem transfection media and incubated with the 30 μL Plus® reagent for 15 minutes. Then, a lipid mixture of 40 μL Lipofectamine Plus® reagent and 460 μL Opti-Mem transfection media is incubated with the DNA-Plus reagent mixture for 15 minutes. During the DNA-lipid incubation, the CHO-K1 cells are washed once and covered in 5.0 mL DMEM media without Penicillin-Streptomycin. The DNA-lipid preparation is then layered onto these cells and incubated at 37° C. overnight.
One and one half million transfected cells per well (100 μL total volume) are plated into sterile, opaque Packard 96-well Cultur-Plates™ in clear DMEM whole media (DMEM—without phenol red) and incubated at 37° C. with 5% CO2 for 3-5 hours.
Compounds are diluted using two different protocols; one protocol is used for compounds supplied neat (weighed powder in vial) and the other protocol is used for compounds supplied in solution (20 mM in DMSO in 96-well plates). For both protocols, 25 mM Hepes and 25 mM Hepes/1% DMSO are prepared fresh to be used as diluent. The Hepes/DMSO is used as the diluent control on all experimental plates.
The following table depicts the steps for compound dilution (please note that the last step is the addition of compound to cells/media in tissue culture plate):
Because some compounds arrive in 96-well format at 20 mM, the following represents the protocol for their dilution (note that an average molecular weight of these compounds was used to calculate these dilutions and as above, the last step is the addition of compound to cells/media in tissue culture plate):
Once compounds are diluted, they are applied in duplicate on cells in tissue culture plates (prepared above). Cells are incubated with compound at 37° C. with 5% CO2 for an additional 36-48 hours.
Luciferase assays (the LucLite® reagent, Packard) are performed and are read on a Packard TopCount® instrument. Media is removed from each 96-well plate and replaced with 100 μL PBS per well (with Mg^2+ and Ca^2+). An equal volume (100 μL) of the LucLite® lysis/substrate buffer is added to each well and the plates are sealed and mixed in the dark on a rotary shaker for about 15 to about 30 minutes at room temperature. Luciferase readings are then taken on the TopCount® instrument. Measurements are expressed as relative light units (RLU) and are calculated and analyzed in the MS Excel® program as follows.
A compound is considered active in RRA if it leads to at least a 1.5 fold increase in luciferase activity at 20 μg/mL and is non-toxic, as determined by loss of signal (≦0.75 fold increase). Fold increase is the amount of luciferase activity (measured in relative light units) over diluent control. SEM represents the standard error of the mean for fold increase (not shown).

Series [4] in a line: Phase 1 and 2 dog liver microsome metabolism. Format: in vitro ADME. Particulars: liver microsomes, read-out: half-life (metabolic stability).
A short description of another series: in vitro. To be noted: rat, microsomes.
A short description of series [5]: Phase 1 and 2 human liver microsome metabolism. Format: in vitro ADME. To be noted: liver microsomes, read-out: half-life (metabolic stability).
For series [6] the following is noted: mouse, microsomes.

For the compound `C[C@H](CC(F)(F)F)[C@@H](CO)NS(=O)(=O)c1ccc(Cl)s1` [Example 1, 5-Chloro-N-[(1S,2R)-4,4,4-trifluoro-1-(hydroxymethyl)-2-methylbutyl]thiophene-2-sulfonamide], the melting point (as a rule, the temperature of the solid-liquid transition) was 132 to 133 °C and 136 to 137 °C. In addition, in series [1], the half-life (as a rule, the time needed for the level to fall by half in the phase considered) was found to be 14 min. The half-life in series [2] was 10 min. Moreover, the fold induction at 20 µg/mL in series [3] turned out to be 3.2. Also, the half-life in series [4] was found to be 31 min. Also, in “in vitro”, the half-life was about 193 min. For the same compound, the half-life in series [5] is 22 min. In turn, `CC[C@H](CC(F)(F)F)[C@@H](CO)NS(=O)(=O)c1ccc(Cl)s1` [Example 2, 5-Chloro-N-[(1S,2R)-2-ethyl-4,4,4-trifluoro-1-(hydroxymethyl)butyl]thiophene-2-sulfonamide] gave a melting point of 128 to 129 °C. Besides, the fold induction at 20 µg/mL in series [3] was 5.4.

On to `CC[C@H](CC(F)(F)F)[C@H](NS(=O)(=O)c1ccc(Cl)s1)C(C)O` (stereo partly drawn) [Example 3, 5′-Chloro-N-[(1S,2R)-2-ethyl, 4,4,4-trifluoro-1-(1-hydroxyethyl)butyl]thiophene-2′-sulfonamide], for which, in series [3], the “RRA data: fold increase of APPI (luciferase activity over diluent control)” value (from here on “RRA data: fold increase of APPI”) is reported as 4.3 fold increase.

With `O=S(=O)(NC(CO)C(C(F)(F)F)C(F)(F)F)c1ccc(Cl)s1` (stereo not shown) [Example 4, 5′-Chloro-N-[3,3,3-trifluoro-2-(trifluoromethyl)-1-(hydroxymethyl)propyl]thiophene-2′-sulfonamide], the “RRA data: fold increase of APPI” value in series [3] is recorded as 3.7 fold increase.

`O=S(=O)(N[C@H](CO)C(C(F)(F)F)C(F)(F)F)c1ccc(Cl)s1` [Example 5, 5′-Chloro-N-[3,3,3-trifluoro-2-(trifluoromethyl)-1-S-(hydroxymethyl)propyl]thiophene-2′-sulfonamide]: the “RRA data: fold increase of APPI” value in series [3] was determined as 3.8 fold increase. Also, the “half-life (metabolic stability)” value in series [6] amounted to 46 min.

For the compound `CC[C@@H](CC(F)(F)F)[C@H](CO)NS(=O)(=O)c1ccc(Cl)s1` [Example 6, 5-Chloro-N-[(1R,2S)-2-ethyl-4,4,4-trifluoro-1-(hydroxymethyl)butyl]thiophene-2-sulfonamide], the fold induction at 20 µg/mL in series [3] is 4.2. On the same count and under the same terms, under `O=S(=O)(NC(CO)CCC(F)(F)F)c1ccc(Cl)s1` (stereo not shown) [Example 7, 5-Chloro-N-[4,4,4-trifluoro-1-(hydroxymethyl)butyl]thiophene-2-sulfonamide] stands 3.9; under `C[C@H](O)[C@@H](NS(=O)(=O)c1ccc(Cl)s1)[C@H](C)CC(F)(F)F` [Example 8, 5-Chloro-N-{(1S,2R)-4,4,4-trifluoro-1-[(1S)-1-hydroxyethyl]-2-methylbutyl}thiophene-2-sulfonamide], 2.8. Consider `C[C@H](CC(F)(F)F)[C@H](NS(=O)(=O)c1ccc(Cl)s1)[C@@H](C)O` [Example 9, 5-Chloro-N-{(1S,2R)-4,4,4-trifluoro-1-[(1R)-1-hydroxyethyl]-2-methylbutyl}thiophene-2-sulfonamide], for which the fold induction at 20 µg/mL in series [3] amounted to 2.8. In turn, `C[C@@H](CC(F)(F)F)[C@@H](CO)NS(=O)(=O)c1ccc(Cl)s1` [Example 10, 5-Chloro-N-[(1S,2S)-4,4,4-trifluoro-1-(hydroxymethyl)-2-methylbutyl]thiophene-2-sulfonamide] came in with a melting point of 99 to 100 °C. Besides, the fold induction at 20 µg/mL in series [3] stood at 5.2. For `CC[C@@H](CC(F)(F)F)[C@@H](CO)NS(=O)(=O)c1sc2ccc(Cl)cc2c1C` [Example 11, (2S,3S)-2-(5-Chloro-3-methylbenzo[b]thiophene-2-sulfonyl)-amido-5,5,5-trifluoro-3-ethyl-pentan-1-ol], the “RRA data: fold increase of APPI” value in series [3] came to 4.2 fold increase. As to `Cc1nn(C)c(Cl)c1S(=O)(=O)N[C@H](CO)[C@H](CC(F)(F)F)c1ccccc1` [Example 12, (2S,3R)-2-(5-Chloro-1,3-dimethyl-1H-pyrazole-4-sulfonyl)-amido-5,5,5-trifluoro-3-phenyl-pentan-1-ol], the “RRA data: fold increase of APPI” value in series [3] was 1.6 fold increase. On to `O=S(=O)(NC(CO)C1CCC(F)(F)CC1)c1ccc(Cl)s1` (stereo not shown) [Example 14, 5-Chloro-N-[1-(4,4-difluorocyclohexyl)-2-hydroxyethyl]thiophene-2-sulfonamide], for which the fold induction at 20 µg/mL in series [3] worked out at 6.2. The same measure, in the same setting: under `O=S(=O)(NC(CO)C1CC2C(C1)C2(F)F)c1ccc(Cl)s1` (stereo not shown) [Example 15, 5-Chloro-N-[1-(6,6-difluorobicyclo[3.1.0]hex-3-yl)-2-hydroxyethyl]thiophene-2-sulfonamide] stands 4.7; under `C[C@H](CC(F)(F)F)[C@@H](C=O)NS(=O)(=O)c1ccc(Cl)s1` [Example 16, 5-Chloro-N-[(1S,2R)-4,4,4-trifluoro-1-formyl-2-methylbutyl]thiophene-2-sulfonamide], 3.9. Still for that read-out and setting: under `CC(=O)[C@@H](NS(=O)(=O)c1ccc(Cl)s1)[C@H](C)CC(F)(F)F` [Example 17, N-[(1S,2R)-1-Acetyl-4,4,4-trifluoro-2-methylbutyl]-5-chlorothiophene-2-sulfonamide] stands 3.6; under `C[C@H](CC(F)(F)F)[C@H](NS(=O)(=O)c1ccc(Cl)s1)C(C)(C)O` [Example 18, 5-Chloro-N-[(1S,2R)-4,4,4-trifluoro-1-(1-hydroxy-1-methylethyl)-2-methylbutyl]thiophene-2-sulfonamide], 2.9.

On to `O=S(=O)(NC(CO)CC(F)(F)F)c1ccc(Cl)s1` (stereo not shown) [Example 40, 5-chloro-(3,3,3-trifluoro-1-hydroxymethyl-propyl)-thiophene-2-sulfonamide], for which the fold induction at 20 µg/mL in series [3] came to 3.8. The same measure, in the same setting: under `C[C@@H](O)[C@@H](NS(=O)(=O)c1ccc(Cl)s1)C(C(F)(F)F)C(F)(F)F` [Example 41, 5-Chloro-N-[(1S)-3,3,3-trifluoro-1-[(1R)-1-hydroxyethyl]-2-(trifluoromethyl)propyl]thiophene-2-sulfonamide] stands 6.2.
